Marks after values point to notes of the source that are not given here.
Key:
human adenosine A1R = target: T1, human adenosine A1R (Homo sapiens, UniProt P30542); assay: Radioligand binding at human adenosine A1 receptor vs. [3H]CCPA; conditions: human recombinant receptor in CHO cells; read-out: A1R vs. [³H]CCPA Ki ± SEM
T1 construct: expressed in transfected cells; host or cells: CHO cells
T1 sequence (P30542 1-326): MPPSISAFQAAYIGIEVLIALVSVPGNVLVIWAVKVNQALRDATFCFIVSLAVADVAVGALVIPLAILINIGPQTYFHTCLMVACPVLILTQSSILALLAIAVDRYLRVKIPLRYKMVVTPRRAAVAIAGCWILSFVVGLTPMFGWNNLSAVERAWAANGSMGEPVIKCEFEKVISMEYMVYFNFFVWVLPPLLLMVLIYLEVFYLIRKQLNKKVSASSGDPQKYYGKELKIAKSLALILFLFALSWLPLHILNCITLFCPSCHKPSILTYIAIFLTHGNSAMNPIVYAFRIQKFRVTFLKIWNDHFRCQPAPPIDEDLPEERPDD
Experimental: Affinities for adenosine receptors were evaluated in radioligand binding assays as previously described. Human adenosine receptors were stably expressed in CHO cells. The following radioligands were used: [^3H]2-chloro-N^6-cyclopentyladenosine ([^3H]CCPA) for A1R; [^3H]3-(3-hydroxypropyl)-7-methyl-8-(m-methoxystyryl)-1-propargylxanthine ([^3H]MSX-2) for A2AR; [^3H]8-(4-(4-(4-chlorophenyl)piperazine-1-sulfonyl)phenyl)-1-propylxanthine ([^3H]PSB-603) for A2BR; [^3H]phenyl-8-ethyl-4-methyl-(8R)-4,5,7,8-tetrahydro-1H-imidazo [2,1-i]purine-5-one ([^3H]PSB-11) for A3R. Initially, compounds were tested at a concentration of 1 µM. […] At least three independent experiments were performed. Data were analyzed using GraphPad PRISM version 5.0 or higher (Graph Pad, San Diego, CA, USA). Ki were calculated using the Cheng–Prusoff equation.

human MAO B = target: T2, human MAO B (Homo sapiens, UniProt P27338); assay: Human MAO B inhibition, fluorometric method; type: biochemical; conditions: mean of two independent experiments, read-out: % of hMAO B Inhibition at 1 µM
T2 sequence (P27338 1-520): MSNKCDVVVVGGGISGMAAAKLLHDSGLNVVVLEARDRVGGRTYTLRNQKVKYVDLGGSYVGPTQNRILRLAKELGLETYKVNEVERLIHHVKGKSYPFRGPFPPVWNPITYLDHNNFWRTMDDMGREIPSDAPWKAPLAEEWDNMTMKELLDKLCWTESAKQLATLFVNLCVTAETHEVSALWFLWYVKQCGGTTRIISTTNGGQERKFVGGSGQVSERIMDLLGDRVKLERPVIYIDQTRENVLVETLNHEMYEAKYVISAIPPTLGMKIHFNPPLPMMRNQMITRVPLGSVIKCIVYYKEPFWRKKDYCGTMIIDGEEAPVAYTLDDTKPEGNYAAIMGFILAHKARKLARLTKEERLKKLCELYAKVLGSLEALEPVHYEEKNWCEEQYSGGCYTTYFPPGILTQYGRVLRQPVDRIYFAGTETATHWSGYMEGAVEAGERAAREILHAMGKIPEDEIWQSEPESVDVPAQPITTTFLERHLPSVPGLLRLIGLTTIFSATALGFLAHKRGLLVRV
Experimental: The compounds were tested twice in duplicates at a concentration of 1 μM by fluorometric method as previously described. Paratyramine (200 μM) was used as a substrate for the enzyme. Safinamide (1 μM; reversible) and rasagiline (1 μM; irreversible) were used as reference inhibitors.

formalin test in mice = assay: Formalin test; type: in vivo, albino Swiss mice
Experimental: Injection of formalin into the dorsal surface of the hind paw of a mouse produces a biphasic nocifensive behavioral response; i.e., licking, biting, flinching or lifting of the injected paw. The acute (neurogenic) nociceptive phase lasts for the first 5 min and is followed by a period of little activity for the next 10 min. The first phase of the test is directly associated with nociceptor stimulation and the development of neurogenic inflammation. The second (late) phase occurs between 15 and 30 min after formalin injection. The second phase depends on peripheral inflammation and the central sensitization of pain. Since this phase reflects the activation of inflammatory processes, the compounds active in this phase of the experiment also have an anti-inflammatory effect. The tested compounds 19, 22 and 24, were investigated in three doses: 10, 20 and 40 mg/kg bw. ASA (acetylsalicylic acid) was used as a reference compound and administered in doses of 50, 100 and 200 mg/kg. […] The strongest effect in this assay was produced by 24. […] In addition, this anti-nociceptive and anti-inflammatory effect was approximately 13.8 times greater than that observed for the reference compound (ASA). […] ASA also attenuated statistically significant pain responses in the late phases of the formalin test. […] The in vivo experiments were carried out on male albino Swiss mice weighing 18–26 g and male Wistar rats weighing 150–180 g. The animals were housed in constant temperature facilities exposed to a 12:12 light-dark cycle and maintained on a standard pellet diet and tap water given ad libitum. The control and experimental groups consisted of 6–8 animals each. The investigated compounds were intraperitoneally (ip) administered in the form of a suspension in 0.5% methylcellulose. Control animals received the equivalent volume of solvent. All procedures were conducted according to the guidelines of ICLAS (International Council on Laboratory Animals Science) and were approved by the Local Ethics Committee of the Jagiellonian University in Kraków. The mice were pretreated with the test compound or the vehicle and were allowed to acclimate in Plexiglas observation chambers (20 × 30 × 15 cm) for 30 min before the test. Then, 20 μL of a 5% formalin solution was intraplantarly injected into the right hind paw using a 26-gauge needle. Immediately after formalin injection, the animals were individually placed into glass beakers and were observed during the next 30 min. Time (in seconds) spent on licking or biting the injected paw in selected intervals, 0–5, 15–20, 20–25 and 25–30 min, was measured in each experimental group and was an indicator of nociceptive behavior [41]. The ED50 values and their confidence limits were estimated by the method of Litchfield and Wilcoxon.

Q: C#CCn1c(=O)c2c(nc(NCc3ccccc3Cl)n2C)n(C)c1=O [compound 19, 8-((2-Chlorobenzyl)amino)-3,7-dimethyl-1-(prop-2-yn-1-yl)-3,7-dihydro-1H-purine-2,6-dione] was tested. Which Ki (human adenosine A1R) did it give?
A: Its Ki is 407 ± 75 nM.

Q: What about the inhibition at 1 µM (human MAO B) of the same compound?
A: Its inhibition at 1 µM is 6%.

Q: What about the “Late Phase Inhibition (%)” value (formalin test in mice; mice, 10 mg/kg ip) of the same compound?
A: The value was 26.0%.

Q: And the “Licking of the Hind Paw Early Phase (0–5 min) Mean ± SEM” value (from here on “Licking … (0–5 min) Mean ± SEM”) (formalin test in mice; mice, 10 mg/kg ip)?
A: The value was 41.8 ± 5.5 s.

Q: And the “Licking of the Hind Paw Late Phase (15–30 min) Mean ± SEM” value (“Licking … (15–30 min) Mean ± SEM” for short) (formalin test in mice; mice, 10 mg/kg ip)?
A: Its value is 88.4 ± 5.6 s.

Q: And the “Early Phase Inhibition (%)” value (formalin test in mice; mice, 20 mg/kg ip)?
A: Its value is 0%.

Q: And the “Late Phase Inhibition (%)” value (formalin test in mice; mice, 20 mg/kg ip)?
A: The value was 35.7%.

Q: And the “Licking … (0–5 min) Mean ± SEM” value (formalin test in mice; mice, 20 mg/kg ip)?
A: Its value is 48.2 ± 10.0 s.

Q: And the “Licking … (15–30 min) Mean ± SEM” value (formalin test in mice; mice, 20 mg/kg ip)?
A: Its value is 76.8 ± 26.4 s.

Q: What about the “Early Phase Inhibition (%)” value (formalin test in mice; mice, 40 mg/kg ip) of the same compound?
A: The value was 0%.

Q: And the “Late Phase Inhibition (%)” value (formalin test in mice; mice, 40 mg/kg ip)?
A: Its value is 47.2%.

Q: And the “Licking … (0–5 min) Mean ± SEM” value (formalin test in mice; mice, 40 mg/kg ip)?
A: Its value is 42.6 ± 2.8 s.

Q: What about the “Licking … (15–30 min) Mean ± SEM” value (formalin test in mice; mice, 40 mg/kg ip) of the same compound?
A: The value was 63.0 ± 6.6 ^b sec.

Q: How did the Ki (human adenosine A1R) turn out when C#CCn1c(=O)c2c(nc(NCc3c(F)cccc3Cl)n2C)n(C)c1=O [compound 22, 8-((2-Chloro-6-fluorobenzyl)amino)-3,7-dimethyl-1-(prop-2-yn-1-yl)-3,7-dihydro-1H-purine-2,6-dione] was run?
A: Its Ki is 130 ± 34 nM.

Q: What about the inhibition at 1 µM (human MAO B) of the same compound?
A: The inhibition at 1 µM was 7%.

Q: What about the “Early Phase Inhibition (%)” value (formalin test in mice; mice, 10 mg/kg ip) of the same compound?
A: The value was 0%.

Q: What about the “Late Phase Inhibition (%)” value (formalin test in mice; mice, 10 mg/kg ip) of the same compound?
A: The value was 22.8%.

Q: What about the “Licking … (0–5 min) Mean ± SEM” value (formalin test in mice; mice, 10 mg/kg ip) of the same compound?
A: Its value is 41.6 ± 5.4 s.

Q: What about the “Licking … (15–30 min) Mean ± SEM” value (formalin test in mice; mice, 10 mg/kg ip) of the same compound?
A: Its value is 92.2 ± 6.5 s.

Q: And the “Licking … (0–5 min) Mean ± SEM” value (formalin test in mice; mice, 20 mg/kg ip)?
A: The value was 41.0 ± 8.6 s.

Q: What about the “Licking … (15–30 min) Mean ± SEM” value (formalin test in mice; mice, 20 mg/kg ip) of the same compound?
A: Its value is 78.2 ± 20.3 s.

Q: And the “Early Phase Inhibition (%)” value (formalin test in mice; mice, 40 mg/kg ip)?
A: Its value is 5.8%.

Q: What about the “Late Phase Inhibition (%)” value (formalin test in mice; mice, 40 mg/kg ip) of the same compound?
A: The value was 48.0%.

Q: And the “Licking … (0–5 min) Mean ± SEM” value (formalin test in mice; mice, 40 mg/kg ip)?
A: The value was 39.2 ± 1.3 s.

Q: What about the “Licking … (15–30 min) Mean ± SEM” value (formalin test in mice; mice, 40 mg/kg ip) of the same compound?
A: The value was 62.0 ± 5.2 ^b sec.

Q: How did the Ki (human adenosine A1R) turn out when C#CCn1c(=O)c2c(nc(NCc3cccc(Br)c3)n2C)n(C)c1=O [compound 24, 8-((3-Bromobenzyl)amino)-3,7-dimethyl-1-(prop-2-yn-1-yl)-3,7-dihydro-1H-purine-2,6-dione] was run?
A: Its Ki is 72 ± 8 nM.

Q: What about the inhibition at 1 µM (human MAO B) of the same compound?
A: The inhibition at 1 µM was 10%.

Q: And the ED50 (formalin test in mice; Mus musculus, mice, II (late) phase, method of Litchfield and Wilcoxon, read-out: calculated ED50 in the formalin test)?
A: Its ED50 is 9.1 mg/kg.

Q: What about the “effect, times greater than that of the reference compound (ASA)” value (formalin test in mice; formalin test, from ED50) of the same compound?
A: Its value is “approximately 13.8 times”.

Q: And the “Early Phase Inhibition (%)” value (formalin test in mice; mice, 10 mg/kg ip)?
A: Its value is 0%.

Q: And the “Late Phase Inhibition (%)” value (formalin test in mice; mice, 10 mg/kg ip)?
A: The value was 48.7%.

Q: And the “Licking … (0–5 min) Mean ± SEM” value (formalin test in mice; mice, 10 mg/kg ip)?
A: The value was 43.2 ± 6.6 s.

Q: What about the “Licking … (15–30 min) Mean ± SEM” value (formalin test in mice; mice, 10 mg/kg ip) of the same compound?
A: The value was 61.2 ± 6.4 ^b sec.

Q: And the “Early Phase Inhibition (%)” value (formalin test in mice; mice, 20 mg/kg ip)?
A: Its value is 24.5%.

Q: And the “Late Phase Inhibition (%)” value (formalin test in mice; mice, 20 mg/kg ip)?
A: The value was 82.9%.

Q: And the “Licking … (0–5 min) Mean ± SEM” value (formalin test in mice; mice, 20 mg/kg ip)?
A: Its value is 31.4 ± 5.0 s.

Q: What about the “Licking … (15–30 min) Mean ± SEM” value (formalin test in mice; mice, 20 mg/kg ip) of the same compound?
A: The value was 20.4 ± 10.6 ^d sec.

Q: And the “Early Phase Inhibition (%)” value (formalin test in mice; mice, 40 mg/kg ip)?
A: Its value is 26.0%.

Q: What about the “Late Phase Inhibition (%)” value (formalin test in mice; mice, 40 mg/kg ip) of the same compound?
A: The value was 89.7%.

Q: What about the “Licking … (0–5 min) Mean ± SEM” value (formalin test in mice; mice, 40 mg/kg ip) of the same compound?
A: The value was 30.8 ± 6.7 s.

Q: And the “Licking … (15–30 min) Mean ± SEM” value (formalin test in mice; mice, 40 mg/kg ip)?
A: The value was 12.2 ± 3.3 ^d sec.

— publication PMC10531311, “Anti-Inflammatory Activities of 8-Benzylaminoxanthines Showing High Adenosine A2A and Dual A1/A2A Receptor Affinity” (International Journal of Molecular Sciences, 2023)
